# Assay results as given in patent US20250137059A1, “ACTIVATED RAS AS THERAPEUTIC AND DIAGNOSTIC TARGET FOR NEUROFIBROMATOSIS AND USE THEREOF” (THE ASAN FOUNDATION, priority 2021, published 2025).
# Columns and labels:
# Format in all cases: cell-based, human
# [1] = tested on: GTP-bound and activated RAS (Ras-GTP) protein; experiment: G-LISA Ras activation assay in skin fibroblasts after EGF stimulation upon Ataluren treatment; conditions: skin fibroblasts of neurofibromatosis patients (NF1 stop codon mutation) with increased Ras activity compared to normal individuals; Ataluren 20 μg/ml and 30 μg/ml (FIG. 3: 30 μg/ml); EGF 100 ng/ml
# Method: The skin fibroblasts from donated normal individuals and neurofibromatosis patients were cultured in a DMEM supplemented with 10% FBS and 1% penicillin-streptomycin. When the cells were cultured until the density reached 70% to 80% of a container, the medium was replaced with an FBS-free medium, and the cells were cultured and subjected to a starvation process for 24 hours. Next, the cells were transferred to an FBS-containing medium, treated with epidermal growth factor (EGF), which is a Ras activator, by dilution to a concentration of 100 ng/ml, and then allowed for a reaction at 37° C. for 5 minutes to prepare each sample. To analyze the activity of the RAS proteins, a G-LISA Ras activation assay biochem Kit of Cytoskeleton Company (Absorbance Based) (Cytoskeleton, Cat No. BK131), which enables the measurement of a small number of cells and a large number of cells at the same time by compensating for the disadvantages of the pull-down assay, was used.
# Briefly, in a method of analyzing the activity of the RAS proteins, cells were lysed by using a cell lysis solution included in the kit after treatment with EGF, only the supernatant was obtained, and the proteins contained in the supernatant were quantified. […] Next, an HRP detection reagent was added and a reaction was allowed for 15 minutes at room temperature to measure the absorbance at 490 nm. […]
# p-ERK protein = experiment: Expression ratios of ERK and p-ERK on membrane with ERK and p-ERK antibodies (FIG. 5); conditions: Ataluren 20 μg/ml or 30 μg/ml (FIG. 5)
# Method: (§1) The skin fibroblasts from donated normal individuals and neurofibromatosis patients were treated with Ataluren at concentrations of 20 μg/ml and 30 μg/ml and cultured, in a DMEM supplemented with 10% FBS and 1% penicillin-streptomycin. When the cells were cultured until the density reached 70% to 80% of a container, the medium was replaced with an FBS-free medium, and the cells were cultured and underwent a starvation process for 24 hours. Next, the cells were transferred to an FBS-containing medium, treated with EGF, which is a Ras activator, by dilution to a concentration of 100 ng/ml, and then allowed for a reaction at 37° C. for 5 minutes to prepare each sample. Measurement of the activity of Ras proteins in each sample was performed in the same manner as described in Example 2.
# (§2) The same protein of which the Ras activity was measured in Example 3 was subjected to electrophoresis by using NuPAGETM 4-12% Bris-Tris Gel (Invitrogen).
# To more accurately compare the ERK activity, the electrophoresed proteins were transferred to a hybond-ECL membrane, and the membrane was blocked with 3% skim milk. Next, ERK and p-ERK antibodies were reacted on the membrane at 4° C. for 24 hours, and then washed by using TBST three times. […] The expression ratios of ERK and p-ERK in the washed membrane were measured.
# [2] = tested on: phosphorylated ERK (p-ERK); experiment: Electrophoresis comparison of p-ERK expression in fibroblasts upon Ataluren treatment (FIG. 4); conditions: Ataluren 20 μg/ml or 30 μg/ml, electrophoresis (FIG. 4); for expression of p-ERK: fibroblasts of neurofibromatosis patients in which the activity of Ras proteins has been decreased
# Method: as §1, §2
# [3] = fibroblasts of normal individuals
smiles,measurement,setting,value
"O=C(O)c1cccc(-c2noc(-c3ccccc3F)n2)c1 [Ataluren, 3-[5-(2-fluoro-phenyl)-[1,2,4]oxadiazol-3-yl]-benzoic acid]",signal of Ras-GTP (activity of Ras proteins),[1],significantly decreased
same,expression of p-ERK (expression ratios of ERK and p-ERK),p-ERK protein; fibroblasts of neurofibromatosis patients in which the activity of Ras proteins has been decreased,decreased
same,expression level of p-ERK protein (expression ratios of ERK and p-ERK),p-ERK protein; [3],slightly increased
same,expression of p-ERK,[2],decreased
same,expression of p-ERK,[2]; listed as ataluren,significantly decreased
same,expression of phosphorylated ERK (p-ERK),[2]; [3],no change
